Assay results: ChEMBL document CHEMBL6103537 (J Med Chem, 2025)
Activity calls are given as the source filed them. The rule behind the calls is not given here.

What was measured:
[1] = target: T1, Protein cereblon/Signal transducer and activator of transcription 4 (Homo sapiens) (UniProt Q96SW2+Q14765); assay: PROTAC activity at STAT4/CRBN in human MV4-11 cells assessed as reduction in STAT4 level at 10 uM incubated for 12 hrs by Western blot analysis; assay type: cell-based
[2] = target: Protein cereblon/Signal transducer and activator of transcription 5A/Signal transducer and activator of transcription 5B (Homo sapiens) (UniProt P42229+P51692+Q96SW2); assay: PROTAC activity at STAT5/CRBN in human PBMC cells assessed as reduction in STAT5 level at 10 uM incubated for 18 hrs by Western blot analysis relative to control; assay type: cell-based
[3] = target: T2, Protein cereblon/Signal transducer and activator of transcription 1-alpha/beta (Homo sapiens) (UniProt P42224+Q96SW2); assay: PROTAC activity at STAT1/CRBN in human PBMC cells assessed as reduction in STAT1 level at 10 uM incubated for 18 hrs by Western blot analysis relative to control; assay type: cell-based
[4] = target: T3, Protein cereblon/Signal transducer and activator of transcription 6 (Homo sapiens, UniProt P42226+Q96SW2); assay: PROTAC activity at STAT6/CRBN in human L-1236 cells assessed as reduction in STAT6 level incubated for 24 hrs by Western blot analysis; assay type: cell-based; details: dose 10.0 µM
[5] = target: T2, Protein cereblon/Signal transducer and activator of transcription 1-alpha/beta (Homo sapiens); assay: PROTAC activity at STAT1/CRBN in human L-1236 cells assessed as reduction in STAT1 level at 10 uM incubated for 24 hrs by Western blot analysis; assay type: cell-based
[6] = target: Protein cereblon/Signal transducer and activator of transcription 2 (Homo sapiens) (UniProt Q96SW2+P52630); assay: PROTAC activity at STAT2/CRBN in human L-1236 cells assessed as reduction in STAT2 level at 10 uM incubated for 24 hrs by Western blot analysis; assay type: cell-based
[7] = target: T1, Protein cereblon/Signal transducer and activator of transcription 4 (Homo sapiens); assay: PROTAC activity at STAT4/CRBN in human L-1236 cells assessed as reduction in STAT4 level at 10 uM incubated for 24 hrs by Western blot analysis; assay type: cell-based
PBMC = assay: Downregulation of STAT5 level in human PBMC cells at 5 uM incubated for 18 hrs by Western blot analysis relative to control; assay type: functional, cell-based
[8] = target: T3, Protein cereblon/Signal transducer and activator of transcription 6; assay: PROTAC activity at STAT6/CRBN in human MV4-11 cells assessed as reduction in STAT6 level at 2 uM by HiBiT bioluminescence assay; assay type: cell-based; details: time <= 1200.0 min
[9] = target: T3, Protein cereblon/Signal transducer and activator of transcription 6; assay: PROTAC activity at STAT6/CRBN in human MV4-11 cells assessed as reduction in STAT6 level at 2 uM measured upto 1200 mins in presence of AK-068 by HiBiT bioluminescence assay; assay type: cell-based
[10] = target: Protein cereblon/Zinc finger protein Aiolos (Homo sapiens) (UniProt Q96SW2+Q9UKT9); assay: PROTAC activity at CRBN/IKZF3 in human Jurkat cells assessed as degradation of IKZF3 protein at 0.01 to 10 uM incubated for 20 hrs by Western blotting analysis; assay type: cell-based; details: dose 0.01-10 µM
[11] = target: Protein cereblon/Zinc finger protein Helios (Homo sapiens) (UniProt Q96SW2+Q9UKS7); assay: PROTAC activity at CRBN/IKZF2 in human Jurkat cells assessed as degradation of IKZF2 protein at 0.01 to 10 uM incubated for 20 hrs by Western blotting analysis; assay type: cell-based; details: dose 0.01-10 µM
[12] = Metabolic stability in human liver microsome assessed as parent compound remaining measured at 15 mins in presence of NADPH by LC-MS/MS analysis; assay type: ADME; details: liver microsomes, read-out: Stability
[13] = Metabolic stability in dog liver microsome assessed as parent compound remaining measured at 5 mins in presence of NADPH by LC-MS/MS analysis; assay type: ADME, Canis lupus familiaris; details: liver microsomes, read-out: Stability
[14] = Metabolic stability in dog liver microsome assessed as parent compound remaining measured at 15 mins in presence of NADPH by LC-MS/MS analysis; assay type: ADME, Canis lupus familiaris; details: liver microsomes, read-out: Stability
[15] = Metabolic stability in monkey liver microsome assessed as parent compound remaining measured at 30 mins in presence of NADPH by LC-MS/MS analysis; assay type: ADME, Macaca mulatta; details: rhesus monkey, liver microsomes, read-out: Stability
[16] = Metabolic stability in rat liver microsome assessed as parent compound remaining measured at 45 mins in presence of NADPH by LC-MS/MS analysis; assay type: ADME; details: liver microsomes, read-out: Stability
[17] = Stability in human plasma assessed as parent compound remaining measured at 5 mins by LC-MS/MS analysis; assay type: ADME, cell-free; details: read-out: Stability
[18] = Stability in human plasma assessed as parent compound remaining measured at 15 mins by LC-MS/MS analysis; assay type: ADME, cell-free; details: read-out: Stability
[19] = Stability in human plasma assessed as parent compound remaining measured at 30 mins by LC-MS/MS analysis; assay type: ADME, cell-free; details: read-out: Stability
[20] = Stability in dog plasma assessed as parent compound remaining measured at 15 mins by LC-MS/MS analysis; assay type: ADME, cell-free, Canis lupus familiaris; details: read-out: Stability
[21] = Stability in dog plasma assessed as parent compound remaining measured at 60 mins by LC-MS/MS analysis; assay type: ADME, cell-free, Canis lupus familiaris; details: read-out: Stability
[22] = Stability in monkey plasma assessed as parent compound remaining measured at 120 mins by LC-MS/MS analysis; assay type: ADME, cell-free, Macaca mulatta; details: rhesus monkey, read-out: Stability
[23] = Stability in mouse plasma assessed as parent compound remaining measured at 15 mins by LC-MS/MS analysis; assay type: ADME, cell-free; details: read-out: Stability
[24] = Stability in dog plasma assessed as half life measured upto 60 mins by LC-MS/MS analysis; assay type: ADME, cell-free, Canis lupus familiaris
[25] = Stability in rat plasma assessed as half life measured upto 60 mins by LC-MS/MS analysis; assay type: ADME, cell-free
[26] = target: T4, Protein cereblon/Signal transducer and transcription activator 6 (Mus musculus) (UniProt P52633+Q8C7D2); assay: In vivo PROTAC activity at STAT6/CRBN in BALB/c mouse assessed as reduction in STAT6 level in lung at 200 mg/kg, ip measured at 2 hrs by Western blot analysis; assay type: functional, organism-based; set-up: scale not given: the % may be the effect or the level left
[27] = target: T4, Protein cereblon/Signal transducer and transcription activator 6 (Mus musculus); assay: In vivo PROTAC activity at STAT6/CRBN in BALB/c mouse assessed as reduction in STAT6 level in lung at 200 mg/kg, ip measured at 24 hrs by Western blot analysis; assay type: functional, organism-based; set-up: scale not given: the % may be the effect or the level left

T3 sequence (P42226 2-847 limits assumed): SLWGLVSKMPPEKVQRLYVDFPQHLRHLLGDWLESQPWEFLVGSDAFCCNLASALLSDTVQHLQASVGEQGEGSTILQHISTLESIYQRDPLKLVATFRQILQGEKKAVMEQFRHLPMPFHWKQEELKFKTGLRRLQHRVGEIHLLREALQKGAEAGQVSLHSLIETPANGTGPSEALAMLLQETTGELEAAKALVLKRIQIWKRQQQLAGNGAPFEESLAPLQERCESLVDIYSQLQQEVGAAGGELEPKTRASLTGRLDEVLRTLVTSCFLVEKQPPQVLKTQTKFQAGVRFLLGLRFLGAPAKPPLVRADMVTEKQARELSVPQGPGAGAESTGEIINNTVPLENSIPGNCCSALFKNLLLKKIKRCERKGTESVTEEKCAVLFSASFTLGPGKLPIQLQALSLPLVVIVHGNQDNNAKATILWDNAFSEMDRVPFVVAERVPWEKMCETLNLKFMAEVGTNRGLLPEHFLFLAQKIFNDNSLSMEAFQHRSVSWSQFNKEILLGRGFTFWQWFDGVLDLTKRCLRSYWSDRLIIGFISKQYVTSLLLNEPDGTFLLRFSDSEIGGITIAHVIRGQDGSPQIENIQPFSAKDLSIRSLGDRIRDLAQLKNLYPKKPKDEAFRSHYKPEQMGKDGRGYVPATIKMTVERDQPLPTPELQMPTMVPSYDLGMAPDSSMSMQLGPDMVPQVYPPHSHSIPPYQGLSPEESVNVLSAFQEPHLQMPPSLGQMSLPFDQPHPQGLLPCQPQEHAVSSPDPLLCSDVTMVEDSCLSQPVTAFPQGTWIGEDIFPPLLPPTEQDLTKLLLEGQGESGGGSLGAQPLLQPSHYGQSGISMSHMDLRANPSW
T3 sequence (Q96SW2 whole entry partner): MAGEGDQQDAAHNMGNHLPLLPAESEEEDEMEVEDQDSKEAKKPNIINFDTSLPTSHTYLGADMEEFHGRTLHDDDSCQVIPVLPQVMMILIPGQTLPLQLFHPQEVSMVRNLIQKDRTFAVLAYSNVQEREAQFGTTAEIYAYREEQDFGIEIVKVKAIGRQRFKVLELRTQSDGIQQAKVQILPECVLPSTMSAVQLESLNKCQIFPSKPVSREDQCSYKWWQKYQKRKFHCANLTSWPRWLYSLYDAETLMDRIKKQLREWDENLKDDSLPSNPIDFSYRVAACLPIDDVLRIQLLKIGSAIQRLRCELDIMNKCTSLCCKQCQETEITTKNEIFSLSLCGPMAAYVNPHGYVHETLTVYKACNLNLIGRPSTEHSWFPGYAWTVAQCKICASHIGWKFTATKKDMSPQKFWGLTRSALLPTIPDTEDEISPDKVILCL
T4 sequence (P52633 whole entry, looked up): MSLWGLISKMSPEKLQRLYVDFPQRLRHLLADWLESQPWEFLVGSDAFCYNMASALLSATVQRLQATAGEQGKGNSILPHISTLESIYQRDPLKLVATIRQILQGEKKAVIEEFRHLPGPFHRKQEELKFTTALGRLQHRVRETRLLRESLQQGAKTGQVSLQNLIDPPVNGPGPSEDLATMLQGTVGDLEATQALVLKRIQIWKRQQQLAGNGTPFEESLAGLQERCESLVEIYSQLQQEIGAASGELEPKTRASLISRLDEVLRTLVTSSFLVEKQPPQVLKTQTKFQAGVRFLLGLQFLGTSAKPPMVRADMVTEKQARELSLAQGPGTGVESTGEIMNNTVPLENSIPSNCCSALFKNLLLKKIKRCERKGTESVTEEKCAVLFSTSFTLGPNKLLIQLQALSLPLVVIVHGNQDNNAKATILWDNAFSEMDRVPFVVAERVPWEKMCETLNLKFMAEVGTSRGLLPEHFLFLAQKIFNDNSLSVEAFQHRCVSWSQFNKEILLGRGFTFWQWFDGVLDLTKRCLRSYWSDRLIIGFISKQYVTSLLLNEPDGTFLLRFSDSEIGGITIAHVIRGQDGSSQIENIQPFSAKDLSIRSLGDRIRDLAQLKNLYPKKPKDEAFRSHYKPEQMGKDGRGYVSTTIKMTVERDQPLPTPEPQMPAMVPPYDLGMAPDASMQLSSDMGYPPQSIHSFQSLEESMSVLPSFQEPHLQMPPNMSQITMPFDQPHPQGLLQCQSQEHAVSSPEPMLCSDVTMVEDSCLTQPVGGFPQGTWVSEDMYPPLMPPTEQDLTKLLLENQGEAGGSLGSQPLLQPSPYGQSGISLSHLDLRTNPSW
T4 sequence (Q8C7D2 whole entry, looked up): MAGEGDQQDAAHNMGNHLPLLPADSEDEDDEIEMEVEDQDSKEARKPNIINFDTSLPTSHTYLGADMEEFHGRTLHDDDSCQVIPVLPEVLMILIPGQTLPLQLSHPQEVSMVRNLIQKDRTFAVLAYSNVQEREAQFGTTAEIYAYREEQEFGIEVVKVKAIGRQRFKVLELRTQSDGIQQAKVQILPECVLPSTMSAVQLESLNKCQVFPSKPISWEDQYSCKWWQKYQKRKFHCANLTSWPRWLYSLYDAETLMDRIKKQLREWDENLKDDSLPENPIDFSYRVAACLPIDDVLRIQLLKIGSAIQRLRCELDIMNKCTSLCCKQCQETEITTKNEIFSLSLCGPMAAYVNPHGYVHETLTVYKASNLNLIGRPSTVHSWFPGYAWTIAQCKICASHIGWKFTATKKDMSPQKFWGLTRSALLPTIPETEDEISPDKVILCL
T1 sequence (Q14765 whole entry, looked up): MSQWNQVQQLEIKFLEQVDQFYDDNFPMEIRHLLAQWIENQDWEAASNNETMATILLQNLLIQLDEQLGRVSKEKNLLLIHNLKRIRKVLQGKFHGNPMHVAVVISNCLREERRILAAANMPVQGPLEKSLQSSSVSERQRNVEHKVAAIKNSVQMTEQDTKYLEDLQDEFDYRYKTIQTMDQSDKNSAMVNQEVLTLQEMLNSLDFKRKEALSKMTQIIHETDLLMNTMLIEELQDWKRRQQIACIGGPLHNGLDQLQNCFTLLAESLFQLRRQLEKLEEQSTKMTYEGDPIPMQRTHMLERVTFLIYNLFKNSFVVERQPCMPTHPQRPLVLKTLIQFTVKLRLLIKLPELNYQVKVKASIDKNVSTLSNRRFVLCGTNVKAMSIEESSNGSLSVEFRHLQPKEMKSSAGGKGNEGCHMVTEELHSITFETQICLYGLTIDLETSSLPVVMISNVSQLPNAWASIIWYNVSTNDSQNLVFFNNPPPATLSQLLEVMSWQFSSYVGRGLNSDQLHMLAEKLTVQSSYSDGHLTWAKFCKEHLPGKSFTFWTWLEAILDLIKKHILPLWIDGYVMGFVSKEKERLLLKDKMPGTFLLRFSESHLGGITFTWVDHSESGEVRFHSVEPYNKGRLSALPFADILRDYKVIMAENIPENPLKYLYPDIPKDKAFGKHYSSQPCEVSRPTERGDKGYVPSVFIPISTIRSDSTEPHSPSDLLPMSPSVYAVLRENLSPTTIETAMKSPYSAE
T1 sequence (Q96SW2 whole entry, looked up): as the sequence (Q96SW2 whole entry partner) above
Protein cereblon/Signal transducer and activator of transcription 5A/Signal transducer and activator of transcription 5B (Homo sapiens), sequence (P42229 whole entry, looked up): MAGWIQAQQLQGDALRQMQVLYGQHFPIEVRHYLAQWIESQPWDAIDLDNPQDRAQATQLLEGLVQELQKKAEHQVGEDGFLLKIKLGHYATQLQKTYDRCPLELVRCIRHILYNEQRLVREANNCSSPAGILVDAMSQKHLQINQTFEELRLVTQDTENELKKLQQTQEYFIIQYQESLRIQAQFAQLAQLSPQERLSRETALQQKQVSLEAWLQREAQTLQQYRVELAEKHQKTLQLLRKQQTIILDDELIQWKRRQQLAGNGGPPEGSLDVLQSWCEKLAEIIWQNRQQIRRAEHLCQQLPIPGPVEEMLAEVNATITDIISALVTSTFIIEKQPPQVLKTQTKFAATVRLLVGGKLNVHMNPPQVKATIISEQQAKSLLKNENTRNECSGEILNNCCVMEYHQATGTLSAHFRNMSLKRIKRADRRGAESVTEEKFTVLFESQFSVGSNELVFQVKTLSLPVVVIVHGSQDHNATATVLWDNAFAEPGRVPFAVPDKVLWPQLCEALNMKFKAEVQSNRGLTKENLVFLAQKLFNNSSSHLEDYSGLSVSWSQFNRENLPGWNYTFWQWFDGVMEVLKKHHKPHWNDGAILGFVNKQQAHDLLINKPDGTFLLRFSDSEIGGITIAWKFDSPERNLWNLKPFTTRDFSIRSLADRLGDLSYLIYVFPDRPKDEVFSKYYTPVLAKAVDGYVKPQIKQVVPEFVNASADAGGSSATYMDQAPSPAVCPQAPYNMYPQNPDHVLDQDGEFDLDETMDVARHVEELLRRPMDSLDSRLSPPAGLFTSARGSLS
Protein cereblon/Signal transducer and activator of transcription 5A/Signal transducer and activator of transcription 5B (Homo sapiens), sequence (P51692 whole entry, looked up): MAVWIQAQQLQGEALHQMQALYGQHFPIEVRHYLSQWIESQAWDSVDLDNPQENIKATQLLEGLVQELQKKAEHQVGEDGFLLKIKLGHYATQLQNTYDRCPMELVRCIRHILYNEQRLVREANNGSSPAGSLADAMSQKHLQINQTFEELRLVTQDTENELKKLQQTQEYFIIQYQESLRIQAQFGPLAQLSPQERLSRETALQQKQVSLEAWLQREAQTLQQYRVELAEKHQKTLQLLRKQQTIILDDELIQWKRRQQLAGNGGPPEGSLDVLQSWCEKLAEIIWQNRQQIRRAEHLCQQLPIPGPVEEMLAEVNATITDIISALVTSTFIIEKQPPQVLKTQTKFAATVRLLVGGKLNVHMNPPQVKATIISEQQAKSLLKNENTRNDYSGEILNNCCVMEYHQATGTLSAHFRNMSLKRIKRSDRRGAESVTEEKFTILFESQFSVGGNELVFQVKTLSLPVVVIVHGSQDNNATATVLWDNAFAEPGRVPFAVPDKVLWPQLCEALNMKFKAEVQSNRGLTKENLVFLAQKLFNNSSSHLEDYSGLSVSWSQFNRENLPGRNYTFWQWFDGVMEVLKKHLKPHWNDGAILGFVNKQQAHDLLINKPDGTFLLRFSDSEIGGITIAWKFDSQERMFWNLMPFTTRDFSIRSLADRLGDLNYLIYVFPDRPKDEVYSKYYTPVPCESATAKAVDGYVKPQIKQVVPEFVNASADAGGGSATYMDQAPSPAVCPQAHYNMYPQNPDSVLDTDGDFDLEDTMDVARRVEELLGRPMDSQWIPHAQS
Protein cereblon/Signal transducer and activator of transcription 5A/Signal transducer and activator of transcription 5B (Homo sapiens), sequence (Q96SW2 whole entry, looked up): as the sequence (Q96SW2 whole entry partner) above

- Activity [1]: inactive
- Activity [2]: No effect
- Activity [3]: No effect
- Activity [4]: Dose-dependent-effect
- Activity [5]: No effect
- Activity [6]: No effect
- Activity [7]: No effect
- Activity [8]: Time-dependent-effect
- Activity [9]: Active
- Activity [10]: No effect
- Activity [11]: No effect
- remaining at 0.25 h [12]: 98%
- remaining at 5 min [13]: 97%
- remaining at 0.25 h [14]: 97%
- remaining at 0.5 h [15]: 70%
- remaining at 0.75 h [16]: 90%
- remaining at 5 min [17]: 79%
- remaining at 0.25 h [18]: 94%
- remaining at 0.5 h [19]: 82%
- remaining at 0.25 h [20]: 87%
- remaining at 1 h [21]: 69%
- remaining at 2 h [22]: 82%
- remaining at 0.25 h [23]: 100%
- half-life [24]: > 2 h
- half-life [25]: > 2 h
- Activity [26]: > 70%
- Activity [27]: > 70%
SMILES: CC(C)(C)[C@H](NC(=O)c1cc2cc(C(F)(F)P(=O)(O)O)ccc2s1)C(=O)N1C[C@@H](OCCCCCC#Cc2cccc3c2CN(C2CCC(=O)NC2=O)C3=O)C[C@H]1C(=O)N1CCO[C@H](c2ccccc2)C1 (stereo partly drawn)
- Activity (PBMC): inactive
